17 compounds from US10077261B2, “Imidazolin-5-one derivative useful as FASN inhibitors for the treatment of cancer” (Janssen Pharmaceutica NV, priority 2012, dated 2018) can be followed below.

SMILES strings stand for the structures.

In assay [1] the target is Fatty Acid Synthase Keto-reductase Domain (FASN KR) (Homo sapiens, UniProt P49327). The assay can be described thus: Fatty Acid Synthase keto-reductase domain (FASN KR) inhibition, NADPH oxidation at 340 nm.
Description: After 20 minutes incubation at room temperature the plate was measured again (T2).
The decrease in absorbance was calculated as (Absorbance before incubation T1)−(Absorbance following incubation T2).
A plot of Controlmin versus test compound concentration was fitted to a 4-parameter logistic curve using a non-linear least squares regression method.
Assay [2] deals with A2780 ovarian cells. The assay can be described thus: A2780 ovarian cell proliferation assay in lipid reduced medium, with palmitate (MTT). Format: cell-based. As to conditions: Homo sapiens, A2780, 96 h; read-out: pIC50 A2780 Ovarian Cell, With Palmitate (converted). An outline of the steps:
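In this palmitate-supplemented format, compound dilutions (30 μM down to 0.01 μM) are added to cells in lipid-reduced serum with 25 μM palmitate, 0.2% fatty-acid-free BSA and 0.25% ethanol. After four days (96 h) MTT absorbance at 544 nm is recorded and fitted by minimum sum of squares.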

Assay [3] concerns the target T1, hFASN enzyme (full length) (Homo sapiens, UniProt P49327).
T1 construct: 10 μL hFASN enzyme (full length, 300 ng, purified in house); made in house
The assay is described as follows: Fatty Acid Synthase (FASN) inhibition scintillation proximity assay. The format is biochemical. To be noted: for inhibition at 10 µM: read-out: Human FASN % inhibition @ 10 μM, 10 μM test compound; for IC50: read-out: Human FASN pIC50 (converted). Summed up: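 Scintillation proximity format: in-house full-length enzyme, 300 ng per well, pH 7.5 phosphate/DTT buffer, ³H-acetyl-CoA and malonyl-CoA. Emission counted on LEADseeker at 610 nm at least 24 h after stopping.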

The subject of assay [4] is A2780 ovarian cells. The assay is described as follows: A2780 ovarian cell proliferation assay in lipid reduced medium, without palmitate (MTT). The format is cell-based. As to conditions: Homo sapiens, A2780, 96 h; read-out: pIC50 A2780 Ovarian Cell, Without Palmitate (converted).

T1 sequence (P49327 whole entry): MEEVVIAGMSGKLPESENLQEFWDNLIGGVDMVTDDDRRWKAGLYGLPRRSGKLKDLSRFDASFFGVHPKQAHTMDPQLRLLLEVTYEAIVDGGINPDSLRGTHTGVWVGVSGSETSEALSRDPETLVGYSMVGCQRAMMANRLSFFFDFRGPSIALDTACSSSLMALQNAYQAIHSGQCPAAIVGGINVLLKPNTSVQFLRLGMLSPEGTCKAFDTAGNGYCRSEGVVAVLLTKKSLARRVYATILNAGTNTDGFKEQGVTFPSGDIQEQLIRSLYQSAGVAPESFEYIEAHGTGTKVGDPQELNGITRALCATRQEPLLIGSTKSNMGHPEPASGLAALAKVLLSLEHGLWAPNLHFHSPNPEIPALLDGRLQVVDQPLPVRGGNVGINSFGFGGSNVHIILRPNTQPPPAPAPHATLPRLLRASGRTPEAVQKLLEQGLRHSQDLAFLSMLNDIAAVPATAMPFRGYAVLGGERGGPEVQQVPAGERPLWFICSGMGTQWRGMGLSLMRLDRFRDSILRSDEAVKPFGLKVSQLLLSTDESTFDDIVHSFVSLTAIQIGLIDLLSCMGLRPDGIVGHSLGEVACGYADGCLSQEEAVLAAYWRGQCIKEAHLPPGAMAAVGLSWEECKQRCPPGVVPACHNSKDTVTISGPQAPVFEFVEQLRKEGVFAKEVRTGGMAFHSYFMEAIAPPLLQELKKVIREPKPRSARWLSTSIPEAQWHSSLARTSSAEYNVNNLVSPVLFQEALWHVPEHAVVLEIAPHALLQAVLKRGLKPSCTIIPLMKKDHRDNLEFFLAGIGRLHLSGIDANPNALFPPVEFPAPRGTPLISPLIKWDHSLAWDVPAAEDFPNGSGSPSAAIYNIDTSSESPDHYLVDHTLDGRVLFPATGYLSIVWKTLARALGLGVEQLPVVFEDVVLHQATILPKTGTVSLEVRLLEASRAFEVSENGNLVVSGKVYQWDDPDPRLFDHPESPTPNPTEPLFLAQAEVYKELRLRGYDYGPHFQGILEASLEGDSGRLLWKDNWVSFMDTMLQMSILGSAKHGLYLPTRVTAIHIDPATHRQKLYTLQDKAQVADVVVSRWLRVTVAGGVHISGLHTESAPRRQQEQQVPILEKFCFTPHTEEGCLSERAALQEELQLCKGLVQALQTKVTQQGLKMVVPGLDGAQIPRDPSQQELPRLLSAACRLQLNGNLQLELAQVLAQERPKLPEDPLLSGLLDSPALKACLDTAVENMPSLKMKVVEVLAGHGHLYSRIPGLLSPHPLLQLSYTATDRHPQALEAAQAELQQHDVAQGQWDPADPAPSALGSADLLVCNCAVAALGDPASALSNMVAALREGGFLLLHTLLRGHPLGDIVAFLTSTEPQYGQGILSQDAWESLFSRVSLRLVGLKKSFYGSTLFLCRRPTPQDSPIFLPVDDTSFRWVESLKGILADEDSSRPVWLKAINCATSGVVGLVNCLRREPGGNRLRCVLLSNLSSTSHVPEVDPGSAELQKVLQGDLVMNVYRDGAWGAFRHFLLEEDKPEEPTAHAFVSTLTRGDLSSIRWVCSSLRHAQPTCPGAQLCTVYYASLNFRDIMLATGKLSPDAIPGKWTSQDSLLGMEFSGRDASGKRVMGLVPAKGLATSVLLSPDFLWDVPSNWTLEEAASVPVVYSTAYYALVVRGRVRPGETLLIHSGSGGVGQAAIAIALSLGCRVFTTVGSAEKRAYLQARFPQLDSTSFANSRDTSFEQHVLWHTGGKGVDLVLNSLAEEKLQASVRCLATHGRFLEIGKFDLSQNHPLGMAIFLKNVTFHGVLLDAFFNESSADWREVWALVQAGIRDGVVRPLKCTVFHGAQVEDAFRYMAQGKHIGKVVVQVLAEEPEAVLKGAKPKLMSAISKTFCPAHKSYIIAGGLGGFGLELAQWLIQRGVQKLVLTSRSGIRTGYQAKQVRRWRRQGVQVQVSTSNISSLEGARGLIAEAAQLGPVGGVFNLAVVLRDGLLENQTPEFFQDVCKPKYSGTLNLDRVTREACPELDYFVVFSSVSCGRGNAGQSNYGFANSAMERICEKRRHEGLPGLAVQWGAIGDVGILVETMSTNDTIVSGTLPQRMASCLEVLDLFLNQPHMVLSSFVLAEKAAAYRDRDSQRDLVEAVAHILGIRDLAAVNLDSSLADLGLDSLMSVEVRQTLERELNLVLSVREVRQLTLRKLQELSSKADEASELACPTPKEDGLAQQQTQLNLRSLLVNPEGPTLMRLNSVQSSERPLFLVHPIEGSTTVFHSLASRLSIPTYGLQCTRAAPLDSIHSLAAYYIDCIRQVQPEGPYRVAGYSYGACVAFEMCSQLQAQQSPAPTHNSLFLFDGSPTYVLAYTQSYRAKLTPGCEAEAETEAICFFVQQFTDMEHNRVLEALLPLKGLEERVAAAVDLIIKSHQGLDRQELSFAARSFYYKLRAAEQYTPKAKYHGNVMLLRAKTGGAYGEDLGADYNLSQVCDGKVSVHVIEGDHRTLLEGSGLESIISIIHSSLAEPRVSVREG
Chain of Fatty Acid Synthase Keto-reductase Domain (FASN KR) (P49327 whole entry, the tested form may be a part): as the sequence (P49327 whole entry) above

In the case of `Cc1cc2cc(-c3ccc(C4=NC5(CC5)C(=O)N4C[C@@H]4CCN(C(=O)C5CC5)C4)c(C)c3)ccc2s1` [compound 281, (R)-6-((1-(cyclopropanecarbonyl)pyrrolidin-3-yl)methyl)-5-(2-methyl-4-(2-methylbenzo[b]thiophen-5-yl)phenyl)-4,6-diazaspiro[2.4]hept-4-en-7-one], the IC50 in assay [1] was 110 nM; with A2780 ovarian cells [2], > 6170 nM; in assay [3] it was 44.7 nM; in the assay with A2780 ovarian cells [4], ~813 nM. The inhibition at 10 µM in assay [3] was found to be 114%.

For the compound `Cc1cc(-c2ccc3sc(C)c(C)c3c2)ccc1C1=NC2(CC2)C(=O)N1C[C@@H]1CCN(C(=O)C2CC2)C1` [compound 283, (R)-6-((1-(cyclopropanecarbonyl)pyrrolidin-3-yl)methyl)-5-(4-(2,3-dimethylbenzo[b]thiophen-5-yl)-2-methylphenyl)-4,6-diazaspiro[2.4]hept-4-en-7-one], the IC50 was 93.3 nM in assay [1], > 10000 nM in the assay on A2780 ovarian cells [2], 41.7 nM in assay [3] and ~1860 nM in the assay on A2780 ovarian cells [4]. Further, in assay [3], the inhibition at 10 µM was determined as 112%.

On to `Cc1cc(-c2ccc3occc3c2)ccc1C1=NC2(CC2)C(=O)N1CC1CN(C(=O)C2CC2)C1` [compound 287, 5-(4-(benzofuran-5-yl)-2-methylphenyl)-6-((1-(cyclopropanecarbonyl)azetidin-3-yl)methyl)-4,6-diazaspiro[2.4]hept-4-en-7-one], for which the IC50 in assay [1] is 166 nM; in the assay on A2780 ovarian cells [2] it was > 10000 nM; in assay [3], 43.7 nM; in the assay on A2780 ovarian cells [4], ~282 nM. The inhibition at 10 µM in assay [3] was 110%.

Regarding `Cc1cc2cc(-c3ccc(C4=NC5(CC5)C(=O)N4CC4CN(C(=O)C5CC5)C4)c(C)c3)ccc2o1` [compound 289, 6-((1-(cyclopropanecarbonyl)azetidin-3-yl)methyl)-5-(2-methyl-4-(2-methylbenzofuran-5-yl)phenyl)-4,6-diazspiro[2.4]hept-4-en-7-one], the IC50 in assay [1] is 324 nM; with A2780 ovarian cells [2], > 10000 nM; in assay [3] it was 97.7 nM; in the assay with A2780 ovarian cells [4] it was 1120 nM. Further, in assay [3], the inhibition at 10 µM was 102%.

As to `Cc1cc2cc(-c3ccc(C4=NC5(CC5)C(=O)N4C[C@@H]4CCN(C(=O)C5CC5)C4)cc3F)ccc2o1` [compound 387, 6-{[(3R)-1-(Cyclopropylcarbonyl)pyrrolidin-3-yl]methyl}-5-[3-fluoro-4-(2-methyl-1-benzofuran-5-yl)phenyl]-4,6-diazaspiro[2.4]hept-4-en-7-one], the IC50 in assay [1] is 759 nM; in the assay with A2780 ovarian cells [2] it was > 10000 nM; in assay [3] it was 219 nM; in the assay on A2780 ovarian cells [4] it was ~3240 nM. The inhibition at 10 µM in assay [3] was determined as 103%.

Regarding `Cc1cc2cc(-c3ccc(C4=NC5(CC5)C(=O)N4C[C@@H]4CCN(C(=O)C5CC5)C4)cc3C)ccc2o1` [compound 388, 6-{[(3R)-1-(Cyclopropylcarbonyl)pyrrolidin-3-yl]methyl}-5-[3-methyl-4-(2-methyl-1-benzofuran-5-yl)phenyl]-4,6-diazaspiro[2.4]hept-4-en-7-one], the IC50 is 1100 nM in assay [1], > 10000 nM in the assay with A2780 ovarian cells [2], 355 nM in assay [3] and ~2450 nM in the assay with A2780 ovarian cells [4]. For the same compound, in assay [3], the inhibition at 10 µM was 99%.

Take `O=C(C1CC1)N1CC(CN2C(=O)C3(CC3)N=C2c2ccc(-c3ccc4sccc4c3)c(F)c2)C1` [compound 404, 5-[4-(1-Benzothiophen-5-yl)-3-fluorophenyl]-6-{[1-(cyclopropylcarbonyl)azetidin-3-yl]methyl}-4,6-diazaspiro[2.4]hept-4-en-7-one]: the IC50 in assay [1] was 490 nM; with A2780 ovarian cells [2], > 10000 nM; in assay [3] it was 178 nM; in the assay on A2780 ovarian cells [4] it was 1100 nM. The inhibition at 10 µM in assay [3] turned out to be 97%.

For `O=C(C1CC1)N1CC[C@@H](CN2C(=O)C3(CC3)N=C2c2ccc(-c3nc4ccccc4[nH]3)cc2F)C1` [compound 538, 5-[4-(1H-Benzimidazol-2-yl)-2-fluorophenyl]-6-{[(3R)-1-(cyclopropylcarbonyl)pyrrolidin-3-yl]methyl}-4,6-diazaspiro[2.4]hept-4-en-7-one], the IC50 in assay [1] is 331 nM; in the assay on A2780 ovarian cells [2] it was ~10000 nM; in assay [3] it was 170 nM; with A2780 ovarian cells [4] it was 132 nM. The inhibition at 10 µM in assay [3] worked out at 99%.

With `COCc1nn(C)c2ccc(-c3ccc(C4=NC5(CC5)C(=O)N4CC4CN(C(=O)C5CC5)C4)c(C)c3)cc12` [compound 588, 6-{[1-(Cyclopropylcarbonyl)azetidin-3-yl]methyl}-5-{4-[3-(methoxymethyl)-1-methyl-1H-indazol-5-yl]-2-methylphenyl}-4,6-diazaspiro[2.4]hept-4-en-7-one], the IC50 in assay [1] was 1170 nM; with A2780 ovarian cells [2] it was > 10000 nM; in assay [3], 603 nM; in the assay with A2780 ovarian cells [4], ~676 nM. Further, the inhibition at 10 µM in assay [3] stood at 93%.

In the case of `COCc1nn(C)c2ccc(-c3ccc(C4=NC5(CC5)C(=O)N4CC4CN(C(=O)C5CC5)C4)c(F)c3)cc12` [compound 608, 6-{[1-(Cyclopropylcarbonyl)azetidin-3-yl]methyl}-5-{2-fluoro-4-[3-(methoxymethyl)-1-methyl-01H-indazol-5-yl]phenyl}-4,6-diazaspiro[2.4]hept-4-en-7-one], the IC50 in assay [1] was 1020 nM; in the assay on A2780 ovarian cells [2] it was > 10000 nM; in assay [3] it was 148 nM; with A2780 ovarian cells [4], 372 nM. Also, in assay [3], the inhibition at 10 µM was found to be 98%.

For `CC(C)N1CCC2(CC1)N=C(c1ccc(-c3ccc4[nH]ncc4c3)cc1)N(C[C@@H]1CCN(C(=O)C3CC3)C1)C2=O` [compound 743, 3-{[(3R)-1-(Cyclopropylcarbonyl)pyrrolidin-3-yl]methyl}-2-[4-(1H-indazol-5-yl)phenyl]-8-(1-methylethyl)-1,3,8-triazaspiro[4.5]dec-1-en-4-one], the IC50 in assay [1] was 1580 nM; in the assay on A2780 ovarian cells [2] it was > 10000 nM; in assay [3], 708 nM; with A2780 ovarian cells [4], 2090 nM. For the same compound, the inhibition at 10 µM in assay [3] was 90%.

On to `CC(C)C(=O)N1CCC2(CC1)N=C(c1ccc(-c3ccc4[nH]ccc4c3)cc1)N(CC1CN(C(=O)C3CC3)C1)C2=O` [compound 753, 3-{[1-(Cyclopropylcarbonyl)azetidin-3-yl]methyl}-2-[4-(1H-indol-5-yl)phenyl]-8-(2-methylpropanoyl)-1,3,8-triazaspiro[4.5]dec-1-en-4-one], for which the IC50 was 646 nM in assay [1], > 10000 nM in the assay with A2780 ovarian cells [2], 135 nM in assay [3] and ~245 nM with A2780 ovarian cells [4]. In assay [3], the inhibition at 10 µM is 107%.

`COCCN1CCC2(CC1)N=C(c1ccc(-c3ccc4[nH]ccc4c3)cc1)N(CC1CN(C(=O)C3CC3)C1)C2=O` [compound 755, 3-{[1-(Cyclopropylcarbonyl)azetidin-3-yl]methyl}-2-[4-(1H-indol-5-yl)phenyl]-8-triazaspiro[4.5]dec-1-en-4-one]: the IC50 was 631 nM in assay [1], > 6170 nM with A2780 ovarian cells [2], 229 nM in assay [3] and ~316 nM in the assay with A2780 ovarian cells [4]. The inhibition at 10 µM in assay [3] worked out at 107%.

Consider `O=C(C1CC1)N1CC(CN2C(=O)C3(CCN(CCO)CC3)N=C2c2ccc(-c3ccc4[nH]ccc4c3)cc2)C1` [compound 757, 3-{[1-(Cyclopropylcarbonyl)azetidin-3-yl]methyl}-8-(2-hydroxyethyl)-2-[4-(1H-indol-5-yl)phenyl]-1,3,8-triazaspiro[4.5]dec-1-en-4-one], for which the IC50 in assay [1] is 1000 nM; in the assay on A2780 ovarian cells [2], > 10000 nM; in assay [3] it was 158 nM; with A2780 ovarian cells [4], 708 nM. Moreover, the inhibition at 10 µM in assay [3] worked out at 104%.

Take `O=C(C1CC1)N1CC[C@@H](CN2C(=O)C3(CCCC3)N=C2c2ccc(-c3ccc4[nH]ccc4c3)cc2F)C1` [compound 845, (R)-3-((1-(cyclopropanecarbonyl)pyrrolidin-3-yl)methyl)-2-(2-fluoro-4-(1H-dinol-5-yl)phenyl)-1,3-diazaspiro[4.4]non-1-en-4-one]: the IC50 in assay [1] was 25.1 nM; in the assay on A2780 ovarian cells [2], > 10000 nM; in assay [3], 20 nM; in the assay on A2780 ovarian cells [4], 11 nM. Further, the inhibition at 10 µM in assay [3] is 106%.

Take `O=C(C1CC1)N1CC[C@@H](CN2C(=O)C3(CCCC3)N=C2c2ccc(-c3ccc4cc[nH]c4c3)cc2F)C1` [compound 874, (R)-3-((1-(cyclopropanecarbonyl)pyrrolidin-3-yl)methyl)-2-(2-fluoro-4-(1H-indol-6-yl)phenyl)-1,3-diazaspiro[4.4]non-1-en-4-one]: the IC50 is 40.7 nM in assay [1], > 10000 nM in the assay on A2780 ovarian cells [2], 25.1 nM in assay [3] and 20.9 nM in the assay with A2780 ovarian cells [4]. The inhibition at 10 µM in assay [3] came to 108%.

Take `O=C(N1CC[C@@H](CN2C(=O)C3(CCCC3)N=C2c2ccc(-c3ccc4occc4c3)cc2)C1)C1(O)CC1` [compound 878, (R)-2-(4-(benzofuran-5-yl)phenyl)-3-((1-(1-hydroxycyclopropanecarbonyl)pyrrolidin-3-yl)methyl)-1,3-diazaspiro[4.4]non-1-en-4-one]: the IC50 in assay [1] is 60.3 nM; in the assay on A2780 ovarian cells [2], > 10000 nM; in assay [3] it was 36.3 nM; with A2780 ovarian cells [4], ~93.3 nM. The inhibition at 10 µM in assay [3] was determined as 113%.
